Assay: xn = mol fraction of the nth substance listed

CCCNCCC + CCCCCCCO
viscosity [mPa·s], 101.33 kPa
Conditions	x1 = 0.0952	x1 = 0.1932	x1 = 0.2891	x1 = 0.3853	x1 = 0.5194	x1 = 0.6089	x1 = 0.717	x1 = 0.8156	x1 = 0.9054
303.15 K	4.145	3.485	2.867	2.311	1.672	1.333	1.02	0.809	0.6553
313.15 K	3.063	2.556	2.111	1.724	1.283	1.045	0.8136	0.6509	0.5273

CC1CCCCC1 + CCCCCCO
303.15 K, 101.33 kPa
Conditions	viscosity [mPa·s]
x1 = 0.1015	3.051
x1 = 0.2596	2.193
x1 = 0.4197	1.536
x1 = 0.582	1.11
x1 = 0.7447	0.852
x1 = 0.8989	0.693
x2 = 0.1112	0.7521
x2 = 0.1986	0.8469
x2 = 0.3135	1.009
x2 = 0.4018	1.148
x2 = 0.4981	1.351
x2 = 0.5978	1.595
x2 = 0.7018	1.908
x2 = 0.8123	2.408
x2 = 0.8923	2.874

CCOC(=O)[C@@H](O)[C@H](O)C(=O)OCC + CCCCCCO
viscosity [mPa·s], 101 kPa
Conditions	x1 = 0.1001	x1 = 0.2	x1 = 0.3	x1 = 0.4	x1 = 0.5	x1 = 0.5998	x1 = 0.7001	x1 = 0.8	x1 = 0.8995
293.15 K	6.18	7.861	10.57	14.54	20.8	30.68	43.54	72.93	122.9
298.15 K	5.252	6.543	8.559	11.55	16.09	22.97	31.66	50.5	81.01
303.15 K	4.449	5.484	7.046	9.307	12.59	17.51	23.57	36.18	55.71
308.15 K	3.803	4.618	5.836	7.569	10.04	13.64	18	26.73	39.73
313.15 K	3.251	3.893	4.85	6.204	8.087	10.78	13.99	20.22	29.19
318.15 K	2.838	3.369	4.146	5.219	6.697	8.77	11.19	15.77	22.15
323.15 K	2.506	2.946	3.581	4.451	5.632	7.262	9.138	12.59	17.3

CC1CCCCC1 + CCCCCO
303.15 K, 101.33 kPa
Conditions	viscosity [mPa·s]
x1 = 0.0947	2.283
x1 = 0.2614	1.737
x1 = 0.42	1.289
x1 = 0.5783	0.968
x1 = 0.7422	0.777
x1 = 0.9027	0.663
x2 = 0.1011	0.7025
x2 = 0.2073	0.7951
x2 = 0.3017	0.8911
x2 = 0.4214	1.039
x2 = 0.4998	1.16
x2 = 0.5988	1.325
x2 = 0.7007	1.535
x2 = 0.8084	1.852
x2 = 0.9144	2.305

CCCNCCC + CCCCCO
viscosity [mPa·s], 101.33 kPa
Conditions	x1 = 0.0952	x1 = 0.1918	x1 = 0.2881	x1 = 0.3825	x1 = 0.5157	x1 = 0.616	x1 = 0.7094	x1 = 0.8061	x1 = 0.9023
303.15 K	2.51	2.185	1.875	1.593	1.244	1.034	0.8687	0.7254	0.6098
313.15 K	2.051	1.767	1.51	1.281	1.02	0.8452	0.7187	0.6045	0.5061

CCOC(=O)c1ccccc1 + CCCCCO
viscosity [mPa·s], 101.3 kPa
Conditions	x1 = 0.0771	x1 = 0.1582	x1 = 0.2437	x1 = 0.3339	x1 = 0.4292	x1 = 0.53	x1 = 0.6369	x1 = 0.7504	x1 = 0.8712
303 K	2.883	2.764	2.656	2.533	2.404	2.273	2.135	1.985	1.865
308 K	2.541	2.449	2.349	2.25	2.154	2.031	1.92	1.8	1.691
313 K	2.224	2.139	2.051	1.962	1.875	1.787	1.701	1.615	1.528
318 K	2.005	1.931	1.86	1.789	1.723	1.648	1.56	1.485	1.41
323 K	1.798	1.739	1.68	1.626	1.569	1.505	1.439	1.376	1.313

OC(c1ccccc1)(c1ccccc1)c1ccccc1 + CCCCCOC(C)=O
Conditions	viscosity [mPa·s]
298.15 K, 101 kPa, x2 = 0.5	1.9

CC(C)O + CCCCO
298.15 K, 101 kPa
Conditions	viscosity [mPa·s]
x2 = 0.1026	2.057
x2 = 0.2012	2.105
x2 = 0.302	2.145
x2 = 0.4045	2.207
x2 = 0.5086	2.269
x2 = 0.6002	2.327
x2 = 0.734	2.402
x2 = 0.7964	2.437
x2 = 0.9021	2.506

CC1CCCCC1 + CCCCO
303.15 K, 101.33 kPa
Conditions	viscosity [mPa·s]
x1 = 0.1	1.825
x1 = 0.2604	1.383
x1 = 0.42	1.072
x1 = 0.5788	0.854
x1 = 0.7414	0.719
x1 = 0.9013	0.643
x2 = 0.0995	0.6691
x2 = 0.2019	0.7305
x2 = 0.3088	0.8105
x2 = 0.3988	0.89
x2 = 0.5011	0.9898
x2 = 0.5989	1.122
x2 = 0.6911	1.272
x2 = 0.7839	1.45
x2 = 0.9179	1.858

CCCCCl + CCCCO
viscosity [mPa·s], 101 kPa
Conditions	x1 = 0.0749	x1 = 0.2028	x1 = 0.3021	x1 = 0.4122	x1 = 0.5016	x1 = 0.6048	x1 = 0.7044	x1 = 0.8062	x1 = 0.9064
298.15 K	2.121	1.523	–	0.9486	–	0.6572	0.5679	0.4955	0.4465
313.15 K	1.449	1.081	0.8789	0.7145	0.6192	0.5213	0.4589	0.4114	0.3742

CCCNCCC + CCCCO
viscosity [mPa·s]
Conditions	303.15 K	313.15 K
101 kPa, x1 = 0.01005	2.225	–
101 kPa, x1 = 0.01919	2.196	–
101 kPa, x1 = 0.03366	2.165	–
101 kPa, x1 = 0.0409	2.145	–
101 kPa, x1 = 0.04956	2.121	–
101 kPa, x1 = 0.05853	2.098	–
101 kPa, x1 = 0.07021	2.064	–
101 kPa, x1 = 0.07906	2.04	–
101 kPa, x1 = 0.09184	2.006	–
101.33 kPa, x1 = 0.0954	2.038	1.621
101.33 kPa, x1 = 0.1904	1.797	1.426
101.33 kPa, x1 = 0.2859	1.567	1.252
101.33 kPa, x1 = 0.4163	1.299	1.031
101.33 kPa, x1 = 0.5205	1.106	0.8851
101.33 kPa, x1 = 0.615	0.9506	0.7697
101.33 kPa, x1 = 0.7107	0.8177	0.6675
101.33 kPa, x1 = 0.8108	0.6968	0.5735
101.33 kPa, x1 = 0.8924	0.6105	0.5037

CCOC(=O)[C@@H](O)[C@H](O)C(=O)OCC + CCCCO
viscosity [mPa·s], 101 kPa
Conditions	x1 = 0.0999	x1 = 0.1999	x1 = 0.3	x1 = 0.4001	x1 = 0.4999	x1 = 0.5999	x1 = 0.7001	x1 = 0.8001	x1 = 0.8999
293.15 K	3.887	5.56	8.24	12.44	18.99	29.36	42.81	68.14	118.3
298.15 K	3.353	4.704	6.807	9.946	14.79	22.09	31.37	47.6	78.41
303.15 K	2.902	3.987	5.63	8.08	11.64	16.9	23.32	34.35	54.15
308.15 K	2.527	3.408	4.729	6.627	9.328	13.22	17.74	25.53	38.75
313.15 K	2.217	2.928	3.975	5.454	7.552	10.48	13.83	19.41	28.56
318.15 K	1.953	2.557	3.433	4.631	6.283	8.549	11.11	15.2	21.73
323.15 K	1.746	2.26	2.993	3.98	5.303	7.092	9.107	12.19	16.99

CCOC(=O)c1ccccc1 + CCCCO
viscosity [mPa·s], 101.3 kPa
Conditions	x1 = 0.0664	x1 = 0.1379	x1 = 0.2152	x1 = 0.299	x1 = 0.3901	x1 = 0.4897	x1 = 0.5988	x1 = 0.719	x1 = 0.852
303 K	2.029	2.002	1.967	1.935	1.902	1.874	1.839	1.809	1.78
308 K	1.87	1.837	1.814	1.783	1.754	1.713	1.679	1.646	1.618
313 K	1.599	1.582	1.567	1.559	1.54	1.52	1.499	1.484	1.47
318 K	1.444	1.439	1.426	1.42	1.407	1.4	1.39	1.381	1.372
323 K	1.324	1.318	1.309	1.301	1.29	1.284	1.274	1.269	1.259

CCCNCCC + CCCCOCCO
viscosity [mPa·s], 100 kPa
Conditions	298.15 K	303.15 K	308.15 K
x2 = 0.05	0.558	0.519	0.489
x2 = 0.1003	0.62	0.576	0.538
x2 = 0.1502	0.691	0.64	0.597
x2 = 0.1999	0.775	0.709	0.662
x2 = 0.2999	0.982	0.888	0.826
x2 = 0.3998	1.254	1.118	1.035
x2 = 0.5001	1.549	1.37	1.255
x2 = 0.5999	1.887	1.654	1.51
x2 = 0.6997	2.216	1.935	1.752
x2 = 0.7999	2.527	2.18	1.97
x2 = 0.8996	2.731	2.356	2.141
x2 = 0.9499	2.787	2.437	2.209

CCOC(C)(C)C + CCCCOCCO
viscosity [mPa·s], 101 kPa
Conditions	293.15 K	298.15 K	303.15 K
x1 = 0.0499	2.901	2.558	2.239
x1 = 0.1	2.603	2.314	2.038
x1 = 0.1511	2.336	2.092	1.85
x1 = 0.2007	2.107	1.899	1.687
x1 = 0.2489	1.91	1.731	1.545
x1 = 0.2999	1.725	1.573	1.412
x1 = 0.3421	1.589	1.455	1.312
x1 = 0.4018	1.417	1.305	1.186
x1 = 0.45	1.296	1.198	1.094
x1 = 0.5002	1.183	1.097	1.007
x1 = 0.5521	1.079	1.004	0.925
x1 = 0.5998	0.993	0.926	0.857
x1 = 0.6538	0.906	0.847	0.786
x1 = 0.6987	0.84	0.788	0.734
x1 = 0.7501	0.773	0.727	0.679
x1 = 0.8	0.714	0.673	0.632
x1 = 0.8492	0.661	0.626	0.59
x1 = 0.8997	0.612	0.581	0.55
x1 = 0.9493	0.57	0.541	0.514
